Measurements taken from US20060199772A1, “Use of a proteasome inhibitor in the treatment of endothelial dysfunction and/or in a low-dose proteasome inhibitor therapy” (Charite'-Universitaetsmedizin Berlin, priority 2002, published 2006).
Entries after “also recorded” stand apart in the source; their conditions may differ. Where a SMILES comes first, the peptide text is derived from it. The star is where a group is joined. Cbz = O=C(OCc1ccccc1)*

Tests used:
[1] = test system: cardiomyocytes; conditions: cited from earlier work
[2] = test system: eNOS mRNA; experiment: eNOS mRNA levels by real-time RT-PCR in HUVECs, with or without TNF-α; assay type: cell-based, human; conditions: 48 hours
Method: Purity of HU-VECs was assessed by von Willebrand factor staining. For experiments, cells were seeded onto 6-mm diameter dishes and were treated with either proteasome inhibitors MG132, MG262, with the non-proteasomal cathepsin inhibitor ALLM, or with solvent (DMSO) for the times and concentrations indicated. In some experiments, the transcription inhibitor α-amanitin (2.5 μg/mL) was pre-incubated one hour before addition of proteasome inhibitor. Cell viability was assessed by trypan blue exclusion. For HUVECs, the inventors used only second- to third-passage cells for all experiments.
For eNOS expression in HUVECs, cells were treated with DMSO (control), TNF-α (1, 2.5 and 5 ng/ml) and TNF-α (same concentrations) in the presence of 70 nM MG132, for 48 hours, whereupon eNOS mRNA levels were measured (see Method 3).
After treatment, cells were lysed in Trizol reagent (Gibco Life Technologies, Karlsruhe, Germany) and 800 ng of total RNA were reversed transcribed with random hexamers. Primer sequences were synthesized by TIB Molbiol (Berlin, Germany), and TaqMan probes by Eurogentec (Seraing, Belgium). […] The CT (threshold cycle) is defined as the number of cycles required for the fluorescence signal to exceed the detection threshold. The expression of the target gene relative to the housekeeping gene was calculated as the difference between the threshold values for the two genes.

[3] = test system: rat aortic rings; experiment: Vasorelaxation studies in pretreated rat aortic rings (organ chamber); assay type: cell-based; conditions: 48 hours
Method: Thoracic aortas from male Wistar rats were rapidly excised, cleaned of connective tissue, and cut into rings 2 to 3 mm in length for organ-chamber experiments. Rings were incubated with MG132 100 nmol/L, 250 nmol/L, or solvent, or TNF-α (250 pg/ml) in the presence and absence of 250 nM MG132, for 48 hours in MEM at 37° C. containing 50 U/mL penicillin, 50 μg/mL streptomycin, 0.1% BSA, and 1 μg/mL polymyxin B. The rings were then mounted on platinum hooks in 10 ml jacketed organ baths containing modified Krebs-Henseleit solution (composition in mmol/L: NaCl 144, KCl 5.9, CaCli 1.6, MgSO^4− 1.2, KH2PO4^− 1.2, NaHCO3^− 25, and D-glucose 11.1) and diclofenac 1 μmol/L. Tension was gradually adjusted to 2 g over 1 hour. The solution in the bath was kept at 37° C. with a gas mixture of […]. Following equilibration and submaximal precontraction with phenylephrine (0.05 μmol/L), relaxation to increasing concentrations (1 nmol/L to 1 μmol/L) of the endothelium-dependent vasodilator acetylcholine was performed to obtain cumulative concentration-response curves. Selected studies were conducted in rings treated with L-NAME (1 mmol/L) before phenylephrine exposure. Maintenance of smooth-muscle integrity following incubation with the proteasome inhibitor or solvent was confirmed by evaluation of endothelium-independent vasodilation to papaverine (1 nmol/L to 1 μmol/L).

[4] = test system: eNOS; experiment: eNOS protein expression by Western blot in HUVECs; assay type: cell-based, human
Method: The bovine pulmonary artery endothelial cell line (CPAE cells) was purchased from the American Type Culture Collection (ATCC, # CCL-209) and was cultured in MEM supplemented with 5% FCS, 1.5 g/L sodium bicarbonate, 0.11 g/L sodium pyruvate, 100 U/mL penicillin, and 100 μg/ml streptomycin. Human umbilical vein endothelial cells (HUVECs) were isolated and cultured as described previously (Stangl et al. Homocysteine inhibits TNF-α-induced endothelial adhesion molecule expression and monocyte adhesion via nuclear factor-κB dependent pathwas. Biochem Biophys Commun. 2001; 280:1093-1100). Purity of HU-VECs was assessed by von Willebrand factor staining. For experiments, cells were seeded onto […] dishes and were treated with either proteasome inhibitors MG132, MG262, with the non-proteasomal cathepsin inhibitor ALLM, or with solvent (DMSO) for the times and concentrations indicated. In some experiments, the transcription inhibitor α-amanitin (2.5 μg/mL) was pre-incubated one hour before addition of proteasome inhibitor. Cell viability was assessed by trypan blue exclusion. For HUVECs, the inventors used only second- to third-passage cells for all experiments. […] The inventors took cell photos with a Zeiss camera and analysed them with Axiovert 3.0 software. […]

[5] = test system: proteasome; experiment: Accumulation of poly-ubiquitinylated proteins (anti-ubiquitin Western blot) in CPAE cells; assay type: cell-based, bovine
Method: (§1) The bovine pulmonary artery endothelial cell line (CPAE cells) was purchased from the American Type Culture Collection (ATCC, # CCL-209) and was cultured in MEM supplemented with 5% FCS, 1.5 g/L sodium bicarbonate, 0.11 g/L sodium pyruvate, 100 U/mL penicillin, and 100 μg/ml streptomycin. Human umbilical vein endothelial cells (HUVECs) were isolated and cultured as described previously (Stangl et al. Homocysteine inhibits TNF-α-induced endothelial adhesion molecule expression and monocyte adhesion via nuclear factor-κB dependent pathwas. Biochem Biophys Commun. 2001; 280:1093-1100). Purity of HU-VECs was assessed by von Willebrand factor staining. For experiments, cells were seeded onto […] dishes and were treated with either proteasome inhibitors MG132, MG262, with the non-proteasomal cathepsin inhibitor ALLM, or with solvent (DMSO) for the times and concentrations indicated. In some experiments, the transcription inhibitor α-amanitin (2.5 μg/mL) was pre-incubated one hour before addition of proteasome inhibitor. Cell viability was assessed by trypan blue exclusion. For HUVECs, the inventors used only second- to third-passage cells for all experiments. For phalloidin-DAPI double staining, cells were fixed with 4% paraformaldehyde, permeabilized with 1% Triton, and blocked with 1% FCS. The inventors took cell photos with a Zeiss camera and analysed them with Axiovert 3.0 software.
(§2) After treatment, cells were washed twice with PBS and lysed in extraction buffer containing in mmol/L: Tris/HCl 50 (pH 7.4), KCl 154, glucose 5, EDTA 0.5, PMSF 1, DTT 2, and 1% Triton X-100. Total protein (50 μg per lane) was subjected to SDS-PAGE and membranes were probed with anti-eNOS monoclonal antibody (1:2500) or with anti-ubiquitin antibody (1:1000). Membranes were incubated with secondary anti-mouse antibody (1:2500) conjugated to alkaline phosphatase for eNOS or with anti-rabbit antibody conjugated to horseradish peroxidase (1:10000) for ubiquitin. Bands were visualized by using BCIP and Nitro Blue Tetrazolium (Sigma) for eNOS, and by employing the ECL detection system (Amersham) for ubiquitin.

[6] = test system: CPAE cells; experiment: Cell viability by trypan blue exclusion; assay type: cell-based, bovine
Method: The bovine pulmonary artery endothelial cell line (CPAE cells) was purchased from the American Type Culture Collection (ATCC, # CCL-209) and was cultured in MEM supplemented with 5% FCS, 1.5 g/L sodium bicarbonate, 0.11 g/L sodium pyruvate, 100 U/mL penicillin, and 100 μg/ml streptomycin. Human umbilical vein endothelial cells (HUVECs) were isolated and cultured as described previously (Stangl et al. Homocysteine inhibits TNF-α-induced endothelial adhesion molecule expression and monocyte adhesion via nuclear factor-κB dependent pathwas. Biochem Biophys Commun. 2001; 280:1093-1100). Purity of HU-VECs was assessed by von Willebrand factor staining. For experiments, cells were seeded onto […] dishes and were treated with either proteasome inhibitors MG132, MG262, with the non-proteasomal cathepsin inhibitor ALLM, or with solvent (DMSO) for the times and concentrations indicated. In some experiments, the transcription inhibitor α-amanitin (2.5 μg/mL) was pre-incubated one hour before addition of proteasome inhibitor. Cell viability was assessed by trypan blue exclusion. For HUVECs, the inventors used only second- to third-passage cells for all experiments. […] The inventors took cell photos with a Zeiss camera and analysed them with Axiovert 3.0 software.

[7] = test system: eNOS mRNA; experiment: eNOS mRNA levels by real-time RT-PCR in CPAE cells; assay type: cell-based, bovine
Method: as §1
After treatment, cells were lysed in Trizol reagent (Gibco Life Technologies, Karlsruhe, Germany) and 800 ng of total RNA were reversed transcribed with random hexamers. Primer sequences were synthesized by TIB Molbiol (Berlin, Germany), and TaqMan probes by Eurogentec (Seraing, Belgium). Table 1 summarizes the sequences of primers and probes used in this study. mRNA expression was standardized to the HPRT (hypoxanthine phosphoribosyl transferase) gene as a housekeeping gene, the transcription level of which were not influenced under our experimental conditions. PCR amplification was carried out in 25 μL TaqMan Universal PCR Master Mix (Perkin Elmer Applied Biosystems, Foster City, Calif.) containing either 0.3 or 0.9/μmol/L primer, 0.2/μmol/L TaqMan probe, and 1 μl of the reverse transcription reaction in a 5700 Sequence Detection System (Perkin Elmer Applied Biosystems). Thermal cycling conditions comprised an initial denaturation step at 95° C. for 10 minutes, followed by 95° C. for 15 seconds and 60° C. for 1 minute for 40 cycles. Size and purity of the amplification products were verified on a 20% PAA gel. The CT (threshold cycle) is defined as the number of cycles required for the fluorescence signal to exceed the detection threshold. The expression of the target gene relative to the housekeeping gene was calculated as the difference between the threshold values for the two genes.
The SYBR Green method was applied for quantitative amplification of bovine eNOS mRNA. In our analysis with the transcription inhibitor α-amanitin—which blocks RNA polymerase II, whereas RNA polymerase I is insensitive to this toxin (Lindell T J et al. Specific inhibition of nuclear RNA polymerase II by alpha-amanitin. Science. 1970; 170: 447-449)—the inventors standardized eNOS mRNA expression to RP29 (ribosomal protein 29) gene as housekeeping gene. Thermal cycling conditions were identical to the TaqMan PCR.

[8] = test system: eNOS; experiment: eNOS protein expression by Western blot in CPAE cells; assay type: cell-based, bovine; conditions: for upregulation of eNOS protein (specificity comparison with MG132): equipotent doses
Method: as §1, §2

[9] = test system: eNOS; experiment: eNOS activity, L-[3H]arginine to L-[3H]citrulline conversion in extracts of treated CPAE cells; assay type: cell-based, bovine
Method: eNOS activity was assessed by the formation of L-[^3H]citrulline from L-[^3H]arginine after separation of the amino acids by cation exchange chromatography. Endothelial cells were washed with PBS and lysed in the same extraction buffer as for Western blot analysis. The inventors added 50 μg of total protein to the reaction mixture containing 50 mmol/L Hepes pH 7.4, 0.1% Triton X-100, 1 mmol/L EDTA, 1.25 mmol/L CaCl2, 1 mmol/L DTT, 1 μmol/L FAD, 15 μmol/L BH4, 1 mmol/L NADPH, and 1 μCi L-[^3H]arginine. Incubation was performed for 30 minutes at 37° C. Reactions were terminated by adding 0.5 ml of ice-cold Dowex (Na^+ form). L-[^3H]citrulline was separated from L-[^3H]arginine by Dowex chromatography, and L-[^3H]citrulline formation was quantified by liquid scintillation counting. The inventors subtracted the values obtained from samples incubated without cell extracts. […] In some samples, CaCl2 was omitted from the reaction buffer to exclude any contribution of inducible NO synthase (iNOS).

[10] = test system: cultured neonatal rat cardiomyocytes; conditions: cited from earlier work
[11] = rat aortic rings pretreated 100 and 250 nmol/L

## CC(C)C[C@@H](C=O)NC(=O)[C@H](CC(C)C)NC(=O)[C@H](CC(C)C)NC(=O)OCc1ccccc1 [MG132, N-carbobenzoxy-L-leucinyl-L-leucinyl-L-leucinal] (Cbz-Leu-Leu-Leu-aldehyde)
[1]
  protective effects at concentrations of less than 1 μM: did not exhibit protective effects
[2]; HUVECs, 70 nM with TNF-α 1, 2.5, 5 ng/ml
  eNOS mRNA expression in presence of TNF-α versus TNF-α alone: substantially increased expression of eNOS mRNA
[3]; rat aortic rings pretreated 250 nmol/L
  maximum relaxation to acetylcholine, percentage of phenylephrine precontraction: 89.4±5.7%
[3]; [11]
  endothelial-independent vasorelaxation in response to papaverine: remained unaffected
  endothelium-dependent relaxation to acetylcholine: significantly enhanced
[3]; rat aortic rings, 250 nM with TNF-α 250 pg/ml
  vasoreactivity to acetylcholine of TNF-α-damaged aortic rings: vasoreactivity can be significantly improved
[4]
  eNOS protein expression in HUVECs: dose-dependent increase in eNOS
[5]
  concentration from which poly-ubiquitinylated proteins accumulate: ≥ 50 nmol/L
[5]; 20 nmol/L
  proteasome inhibition at 20 nmol/L: had no proteasomal inhibitory influence
[5]; 100 nmol/L single dose
  time for which poly-ubiquitinylated proteins are detectable after a single dose: three
[5]; 50 to 250 nmol/L
  accumulation of poly-ubiquitinylated proteins: led to accumulation of poly-ubiquitinylated proteins
[6]
  toxic doses by trypan blue exclusion: higher than 250 nmol/L
[7]
  time at which upregulation of eNOS mRNA begins: 16 h
[7]; 100 nmol/L single dose
  time at which eNOS mRNA is still elevated after a single dose: 7 days
[7]; 100 nmol/L, 24 hours
  maximum eNOS mRNA level, times the control level: 6.5 times the control level
[7]; α-amanitin pretreatment 1 hour
  MG132-induced increase in eNOS mRNA after α-amanitin pretreatment: without eliminating the increase in mRNA levels induced by MG132
[8]; 20 nmol/L
  effect on eNOS expression at 20 nmol/L: did not affect eNOS expression
[8]; 50 nmol/L
  time from which eNOS upregulation is significant: 24 h
[8]; 100 nmol/L single dose
  duration of enhanced eNOS protein after a single dose: up to 10 days
[8]; 500 nmol/L and above
  effect on eNOS protein levels at higher concentrations: decreased eNOS protein levels
[8]; 50 to 250 nmol/L
  effect on eNOS protein levels at low concentrations: gradually increased eNOS protein levels
[8]; incubation with single dose
  time at which the rise of eNOS protein expression began: 16 h
[8]; single dose 100 nmol/L, 48 hours
  eNOS protein expression versus control: 2.4 fold
[9]
  time at which the increase in eNOS activity begins: 24 h
[9]; 100 nmol/L single dose
  duration of enhanced eNOS enzyme activity after a single dose: up to 10 days
[10]; 1 μM, control hyperthermia 5+/−2 min
  spontaneous beating time of cardiomyocytes at 46° C.: 28 ± 5 min
[10]
  induction of heat shock proteins at mRNA and protein levels: time- and concentration-dependently induced Hsp72 and Hsp32

## CC[C@H](C)[C@@H]1NC(=O)CNC(=O)[C@@H]2Cc3c([nH]c4cc(O)ccc34)[S+]([O-])C[C@@H](NC(=O)CNC1=O)C(=O)N[C@@H](CC(N)=O)C(=O)N1C[C@H](O)C[C@H]1C(=O)N[C@@H]([C@@H](C)[C@@H](O)CO)C(=O)N2 (stereo in doubt) [α-amanitin]
[7]; 2.5 μg/mL, pre-incubated 1 hour
  effect on overall eNOS mRNA levels: reduced overall eNOS mRNA levels

## TNF-α
[2]; HUVECs, 1, 2.5 and 5 ng/ml
  eNOS mRNA expression versus DMSO control: reduction and almost abolition of mRNA expression
[3]; rat aortic rings, 250 pg/ml
  acetylcholine-dependent vasodilatation versus DMSO control: significantly reduced

## CC(C)C[C@H](NC(=O)[C@H](CC(C)C)NC(=O)[C@H](CC(C)C)NC(=O)OCc1ccccc1)B(O)O [MG262]
[8]
  upregulation of eNOS protein (specificity comparison with MG132): also upregulates eNOS; also recorded: Comparable results; also recorded: induced upregulation of eNOS protein to an extent similar to that caused by MG132

## CSCC[C@@H](C=O)NC(=O)[C@H](CC(C)C)NC(=O)[C@H](CC(C)C)NC(C)=O [ALLM, N-acetyl-leucyl-leucyl-methioninal] (Ac-Leu-Leu-Met-aldehyde)
[5]; corresponding doses
  proteasome inhibition (poly-ubiquitinylated proteins), comparison with MG132: failed to inhibit the proteasome
[8]
  upregulation of eNOS protein (specificity comparison with MG132): had no effect; also recorded: failed to upregulate eNOS
